According to ChEMBL document CHEMBL3885881, “DrugMatrix”:

Organism: Rattus norvegicus
Test: DrugMatrix - Regimen: Daily Repeat
Format: toxicity, organism-based, Sprague-Dawley
Set-up: regimen Daily Repeat, gender Male, age 6-8 weeks
Settings: in vivo, po, 1402 mg/kg, route oral GAVAGE, dose level High, vehicle 100 % WATER; for ABSOLUTE BASOPHIL / ABSOLUTE EOSINOPHIL / ABSOLUTE LYMPHOCYTE / ABSOLUTE MONOCYTE / ABSOLUTE SEGMENTED NEUTROPHIL / BASOPHIL / EOSINOPHIL / ERYTHROCYTE COUNT / HEMATOCRIT / HEMOGLOBIN / LEUKOCYTE COUNT / LYMPHOCYTE / MEAN CORPUSCULAR HEMOGLOBIN / MEAN CORPUSCULAR HEMOGLOBIN CONCENTRATION / MEAN CORPUSCULAR VOLUME / MONOCYTE / NEUTROPHIL / NUCLEATED RED BLOOD CELLS / PLATELET COUNT: tissue Blood; for ALANINE AMINOTRANSFERASE / ALBUMIN / ALKALINE PHOSPHATASE / ASPARTATE AMINOTRANSFERASE / BLOOD UREA NITROGEN / CARBON DIOXIDE / CHLORIDE / CHOLESTEROL / CREATINE PHOSPHOKINASE / CREATININE / GLUCOSE / LACTATE DEHYDROGENASE / LIPASE / PHOSPHORUS / POTASSIUM / SODIUM / TOTAL BILIRUBIN / TOTAL PROTEIN / URIC ACID: tissue Plasma

In the case of C[C@H](CCC(=O)O)[C@H]1CC[C@H]2[C@@H]3[C@H](O)C[C@@H]4C[C@H](O)CC[C@]4(C)[C@H]3C[C@H](O)[C@]12C [CHOLIC ACID], the “ABSOLUTE BASOPHIL” value (72 h, time 3 day) was 0 CELLS/uL, the “ABSOLUTE EOSINOPHIL” value (72 h, time 3 day) was 95.33 CELLS/uL and the “ABSOLUTE LYMPHOCYTE” value (72 h, time 3 day) was 13410.67 CELLS/uL. The “ABSOLUTE MONOCYTE” value (72 h, time 3 day) was 0 CELLS/uL, the “ABSOLUTE SEGMENTED NEUTROPHIL” value (72 h, time 3 day) was 960.67 CELLS/uL and the BASOPHIL (72 h, time 3 day) was 0%. For the same molecule, the EOSINOPHIL (72 h, time 3 day) was 0.67%, the “ERYTHROCYTE COUNT” value (72 h, time 3 day) was 5.62 x10E6/uL and the HEMATOCRIT (72 h, time 3 day) was 34.5%. The HEMOGLOBIN (72 h, time 3 day) was 13.7 G/DL, the “LEUKOCYTE COUNT” value (72 h, time 3 day) was 14.47 x10E3/uL and the LYMPHOCYTE (72 h, time 3 day) was 92.67%. The “MEAN CORPUSCULAR HEMOGLOBIN” value (72 h, time 3 day) was 24.47 pg, the “MEAN CORPUSCULAR HEMOGLOBIN CONCENTRATION” value (72 h, time 3 day) was 39.8 G/DL and the “MEAN CORPUSCULAR VOLUME” value (72 h, time 3 day) was 61.47 fL. For the same molecule, the MONOCYTE (72 h, time 3 day) was 0%, the NEUTROPHIL (72 h, time 3 day) was 6.67% and the “NUCLEATED RED BLOOD CELLS” value (72 h, time 3 day) was 0 /100WBC. The “PLATELET COUNT” value (72 h, time 3 day) was 1053.33 x10E3/uL, the “ALANINE AMINOTRANSFERASE” value (72 h, time 3 day) was 55.33 u/L and the ALBUMIN (72 h, time 3 day) was 4.17 G/DL. The “ALKALINE PHOSPHATASE” value (72 h, time 3 day) was 359.33 u/L, the “ASPARTATE AMINOTRANSFERASE” value (72 h, time 3 day) was 84.67 u/L and the “BLOOD UREA NITROGEN” value (72 h, time 3 day) was 16 mg/dL. The “CARBON DIOXIDE” value (72 h, time 3 day) was 32 mmol/L, the CHLORIDE (72 h, time 3 day) was 101.67 MEQ/L and the CHOLESTEROL (72 h, time 3 day) was 91.33 mg/dL. The “CREATINE PHOSPHOKINASE” value (72 h, time 3 day) was 224 u/L, the CREATININE (72 h, time 3 day) was 0.19 mg/dL and the GLUCOSE (72 h, time 3 day) was 152 mg/dL. For the same molecule, the “LACTATE DEHYDROGENASE” value (72 h, time 3 day) was 124.33 u/L, the LIPASE (72 h, time 3 day) was 9.67 u/L and the PHOSPHORUS (72 h, time 3 day) was 12.63 mg/dL. For the same molecule, the POTASSIUM (72 h, time 3 day) was 7.15 MEQ/L, the SODIUM (72 h, time 3 day) was 144.2 MEQ/L and the “TOTAL BILIRUBIN” value (72 h, time 3 day) was 0.2 mg/dL. For the same molecule, the “TOTAL PROTEIN” value (72 h, time 3 day) was 5.77 G/DL, the “URIC ACID” value (72 h, time 3 day) was 1.93 mg/dL and the “ABSOLUTE BASOPHIL” value (120 h, time 5 day) was 0 CELLS/uL. For the same molecule, the “ABSOLUTE EOSINOPHIL” value (120 h, time 5 day) was 0 CELLS/uL, the “ABSOLUTE LYMPHOCYTE” value (120 h, time 5 day) was 13701.33 CELLS/uL and the “ABSOLUTE MONOCYTE” value (120 h, time 5 day) was 565.67 CELLS/uL. The “ABSOLUTE SEGMENTED NEUTROPHIL” value (120 h, time 5 day) was 1233 CELLS/uL, the BASOPHIL (120 h, time 5 day) was 0% and the EOSINOPHIL (120 h, time 5 day) was 0%. The “ERYTHROCYTE COUNT” value (120 h, time 5 day) was 5.73 x10E6/uL, the HEMATOCRIT (120 h, time 5 day) was 34.97% and the HEMOGLOBIN (120 h, time 5 day) was 13.73 G/DL. For the same molecule, the “LEUKOCYTE COUNT” value (120 h, time 5 day) was 15.5 x10E3/uL, the LYMPHOCYTE (120 h, time 5 day) was 88.67% and the “MEAN CORPUSCULAR HEMOGLOBIN” value (120 h, time 5 day) was 24 pg. The “MEAN CORPUSCULAR HEMOGLOBIN CONCENTRATION” value (120 h, time 5 day) was 39.3 G/DL, the “MEAN CORPUSCULAR VOLUME” value (120 h, time 5 day) was 60.97 fL and the MONOCYTE (120 h, time 5 day) was 3.67%. For the same molecule, the NEUTROPHIL (120 h, time 5 day) was 7.67%, the “NUCLEATED RED BLOOD CELLS” value (120 h, time 5 day) was 0.67 /100WBC and the “PLATELET COUNT” value (120 h, time 5 day) was 1207 x10E3/uL. For the same molecule, the “ALANINE AMINOTRANSFERASE” value (120 h, time 5 day) was 112 u/L, the ALBUMIN (120 h, time 5 day) was 4.27 G/DL and the “ALKALINE PHOSPHATASE” value (120 h, time 5 day) was 330 u/L. For the same molecule, the “ASPARTATE AMINOTRANSFERASE” value (120 h, time 5 day) was 171 u/L, the “BLOOD UREA NITROGEN” value (120 h, time 5 day) was 16.33 mg/dL and the “CARBON DIOXIDE” value (120 h, time 5 day) was 30.33 mmol/L. For the same molecule, the CHLORIDE (120 h, time 5 day) was 101.67 MEQ/L, the CHOLESTEROL (120 h, time 5 day) was 94.33 mg/dL and the “CREATINE PHOSPHOKINASE” value (120 h, time 5 day) was 383.67 u/L. The CREATININE (120 h, time 5 day) was 0.27 mg/dL, the GLUCOSE (120 h, time 5 day) was 120.67 mg/dL and the “LACTATE DEHYDROGENASE” value (120 h, time 5 day) was 380.33 u/L. The LIPASE (120 h, time 5 day) was 12 u/L, the PHOSPHORUS (120 h, time 5 day) was 12.13 mg/dL and the POTASSIUM (120 h, time 5 day) was 7.47 MEQ/L. For the same molecule, the SODIUM (120 h, time 5 day) was 144.4 MEQ/L, the “TOTAL BILIRUBIN” value (120 h, time 5 day) was 0.2 mg/dL and the “TOTAL PROTEIN” value (120 h, time 5 day) was 6.23 G/DL. The “URIC ACID” value (120 h, time 5 day) was 2.1 mg/dL.
